Data published in PubChem BioAssay (NCI).
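Interpolation was linear, between the two tested concentrations surrounding the appropriate level; five concentrations were tested over 48 hours in 96-well plates. GI50: concentration for 50% inhibition of growth. TGI: concentration producing complete growth inhibition.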

Legend:
Experiment in all cases: NCI anticancer screen, dose series, 48 h
CCRF-CEM leukemia = tested on: CCRF-CEM leukemia
HOP-92 NSCLC = tested on: HOP-92 NSCLC
A498 renal = tested on: A498 renal
BT-549 breast = tested on: BT-549 breast
OVCAR-3 ovarian = tested on: OVCAR-3 ovarian
U251 CNS = tested on: U251 CNS
SW-620 colon = tested on: SW-620 colon
SNB-19 CNS = tested on: SNB-19 CNS
TK-10 renal = tested on: TK-10 renal
SK-MEL-2 melanoma = tested on: SK-MEL-2 melanoma
SR leukemia = tested on: SR leukemia
UACC-62 melanoma = tested on: UACC-62 melanoma
SN12C renal = tested on: SN12C renal
SF-295 CNS = tested on: SF-295 CNS
SK-OV-3 ovarian = tested on: SK-OV-3 ovarian
NCI-H23 lung = tested on: NCI-H23 lung
LOX IMVI melanoma = tested on: LOX IMVI melanoma
OVCAR-8 ovarian = tested on: OVCAR-8 ovarian
T-47D breast = tested on: T-47D breast
M14 melanoma = tested on: M14 melanoma
HT29 colon = tested on: HT29 colon
786-0 renal = tested on: 786-0 renal
HOP-62 NSCLC = tested on: HOP-62 NSCLC
NCI-H460 lung = tested on: NCI-H460 lung
IGROV1 ovarian = tested on: IGROV1 ovarian
RPMI-8226 leukemia = tested on: RPMI-8226 leukemia
COLO 205 colon = tested on: COLO 205 colon
OVCAR-5 ovarian = tested on: OVCAR-5 ovarian
NCI-H522 lung = tested on: NCI-H522 lung
RXF 393 renal = tested on: RXF 393 renal
SNB-75 CNS = tested on: SNB-75 CNS
PC-3 prostate = tested on: PC-3 prostate
SK-MEL-5 melanoma = tested on: SK-MEL-5 melanoma
NCI-H226 lung = tested on: NCI-H226 lung
SF-539 CNS = tested on: SF-539 CNS
HCT-116 colon = tested on: HCT-116 colon
MDA-MB-231 breast = tested on: MDA-MB-231 breast
K-562 leukemia = tested on: K-562 leukemia
HS 578T breast = tested on: HS 578T breast
UACC-257 melanoma = tested on: UACC-257 melanoma
EKVX NSCLC = tested on: EKVX NSCLC
HCC-2998 colon = tested on: HCC-2998 colon
MDA-MB-468 breast = tested on: MDA-MB-468 breast
UO-31 renal = tested on: UO-31 renal
A549 NSCLC = tested on: A549 NSCLC
MOLT-4 leukemia = tested on: MOLT-4 leukemia
SF-268 CNS = tested on: SF-268 CNS
HCT-15 colon = tested on: HCT-15 colon
MALME-3M melanoma = tested on: MALME-3M melanoma
ACHN renal = tested on: ACHN renal
CAKI-1 renal = tested on: CAKI-1 renal
MCF7 breast = tested on: MCF7 breast
MDA-MB-435 = tested on: MDA-MB-435
HL-60(TB) leukemia = tested on: HL-60(TB) leukemia
SK-MEL-28 melanoma = tested on: SK-MEL-28 melanoma

C=C1CC[C@@H]2[C@]3(C)COC(c4cn(-c5ccccc5)nc4-c4ccccc4)O[C@@H]3CC[C@@]2(C)[C@@H]1C/C=C1/C(=O)OC[C@H]1O (some centres not stated)
GI50 (CCRF-CEM leukemia): 590 nM
TGI (CCRF-CEM leukemia): 3370 nM
GI50 (HOP-92 NSCLC): 1530 nM
TGI (HOP-92 NSCLC): 2990 nM
GI50 (A498 renal): 2340 nM
TGI (A498 renal): 6470 nM
GI50 (BT-549 breast): 1640 nM
TGI (BT-549 breast): 3160 nM
GI50 (OVCAR-3 ovarian): 1820 nM
TGI (OVCAR-3 ovarian): 3350 nM
GI50 (U251 CNS): 1840 nM
TGI (U251 CNS): 3710 nM
GI50 (SW-620 colon): 1730 nM
TGI (SW-620 colon): 3680 nM
GI50 (SNB-19 CNS): 1850 nM
TGI (SNB-19 CNS): 3780 nM
GI50 (TK-10 renal): 1780 nM
TGI (TK-10 renal): 3390 nM
GI50 (SK-MEL-2 melanoma): 1740 nM
TGI (SK-MEL-2 melanoma): 3540 nM
GI50 (SR leukemia): 3790 nM
TGI (SR leukemia): > 100000 nM
GI50 (UACC-62 melanoma): 1650 nM
TGI (UACC-62 melanoma): 3200 nM
GI50 (SN12C renal): 1870 nM
TGI (SN12C renal): 3960 nM
GI50 (SF-295 CNS): 1640 nM
TGI (SF-295 CNS): 3050 nM
GI50 (SK-OV-3 ovarian): 4750 nM
TGI (SK-OV-3 ovarian): 18700 nM
GI50 (NCI-H23 lung): 1690 nM
TGI (NCI-H23 lung): 3080 nM
GI50 (LOX IMVI melanoma): 1540 nM
TGI (LOX IMVI melanoma): 3000 nM
GI50 (OVCAR-8 ovarian): 1810 nM
TGI (OVCAR-8 ovarian): 5310 nM
GI50 (T-47D breast): 1420 nM
TGI (T-47D breast): 3470 nM
GI50 (M14 melanoma): 1810 nM
TGI (M14 melanoma): 3620 nM
GI50 (HT29 colon): 2370 nM
TGI (HT29 colon): 6770 nM
GI50 (786-0 renal): 2030 nM
TGI (786-0 renal): 4470 nM
GI50 (HOP-62 NSCLC): 1870 nM
TGI (HOP-62 NSCLC): 3840 nM
GI50 (NCI-H460 lung): 1660 nM
TGI (NCI-H460 lung): 3350 nM
GI50 (IGROV1 ovarian): 1770 nM
TGI (IGROV1 ovarian): 3440 nM
GI50 (RPMI-8226 leukemia): 2020 nM
TGI (RPMI-8226 leukemia): 8620 nM
GI50 (COLO 205 colon): 2010 nM
TGI (COLO 205 colon): 3570 nM
GI50 (OVCAR-5 ovarian): 1860 nM
TGI (OVCAR-5 ovarian): 4020 nM
GI50 (NCI-H522 lung): 1900 nM
TGI (NCI-H522 lung): 3860 nM
GI50 (RXF 393 renal): 1400 nM
TGI (RXF 393 renal): 2840 nM
GI50 (SNB-75 CNS): 1360 nM
TGI (SNB-75 CNS): 3900 nM
GI50 (PC-3 prostate): 1950 nM
TGI (PC-3 prostate): 4700 nM
GI50 (SK-MEL-5 melanoma): 1400 nM
TGI (SK-MEL-5 melanoma): 2700 nM
GI50 (NCI-H226 lung): 1950 nM
TGI (NCI-H226 lung): 4310 nM
GI50 (SF-539 CNS): 1840 nM
TGI (SF-539 CNS): 3260 nM
GI50 (HCT-116 colon): 1610 nM
TGI (HCT-116 colon): 3550 nM
GI50 (MDA-MB-231 breast): 1720 nM
TGI (MDA-MB-231 breast): 3250 nM
GI50 (K-562 leukemia): 2970 nM
TGI (K-562 leukemia): > 100000 nM
GI50 (HS 578T breast): 2310 nM
TGI (HS 578T breast): 6540 nM
GI50 (UACC-257 melanoma): 1900 nM
TGI (UACC-257 melanoma): 3800 nM
GI50 (EKVX NSCLC): 2070 nM
TGI (EKVX NSCLC): 4650 nM
GI50 (HCC-2998 colon): 1680 nM
TGI (HCC-2998 colon): 3110 nM
GI50 (MDA-MB-468 breast): 1690 nM
TGI (MDA-MB-468 breast): 3340 nM
GI50 (UO-31 renal): 1350 nM
TGI (UO-31 renal): 2690 nM
GI50 (A549 NSCLC): 2490 nM
TGI (A549 NSCLC): 7110 nM
GI50 (MOLT-4 leukemia): 1970 nM
TGI (MOLT-4 leukemia): > 100000 nM
GI50 (SF-268 CNS): 3200 nM
TGI (SF-268 CNS): 20500 nM
GI50 (HCT-15 colon): 1720 nM
TGI (HCT-15 colon): 3450 nM
GI50 (MALME-3M melanoma): 1730 nM
TGI (MALME-3M melanoma): 3180 nM
GI50 (ACHN renal): 1640 nM
TGI (ACHN renal): 3050 nM
GI50 (CAKI-1 renal): 1860 nM
TGI (CAKI-1 renal): 4810 nM
GI50 (MCF7 breast): 2000 nM
TGI (MCF7 breast): 9090 nM
GI50 (MDA-MB-435): 1860 nM
TGI (MDA-MB-435): 4190 nM
GI50 (HL-60(TB) leukemia): 2320 nM
TGI (HL-60(TB) leukemia): 7460 nM
GI50 (SK-MEL-28 melanoma): 1770 nM
TGI (SK-MEL-28 melanoma): 3380 nM

CO[C@H](C(=O)[C@@H](O)[C@@H](C)O)[C@@H]1Cc2cc3cc(O[C@H]4C[C@@H](O[C@H]5C[C@@H](O)[C@H](O)C(C)O5)[C@H](O)C(C)(O)O4)cc(O)c3c(O)c2C(=O)[C@H]1O[C@H]1C[C@@H](O[C@H]2C[C@@H](O[C@H]3C[C@@H](OC)[C@H](O)C(C)O3)[C@@H](O)C(C)O2)[C@H](O)C(C)O1 (some centres not stated)
GI50 (MDA-MB-468 breast): 2930 nM
TGI (MDA-MB-468 breast): > 16800 nM

COc1cccc(/C=N/Nc2ncnc3c2cnn3-c2cccc(OC)c2)c1
GI50 (MDA-MB-468 breast): > 25000 nM
TGI (MDA-MB-468 breast): > 25000 nM

Cn1cc(C2=C(c3cn(CCSC(=N)N)c4ccccc34)C(=O)NC2=O)c2ccccc21
GI50 (MDA-MB-468 breast): 3190 nM
TGI (MDA-MB-468 breast): 7120 nM

O=C(C[Si](CC(=O)c1cccc(C(F)(F)F)c1)CC(=O)c1cccc(C(F)(F)F)c1)c1cccc(C(F)(F)F)c1
GI50 (MDA-MB-468 breast): 2240 nM
TGI (MDA-MB-468 breast): 6710 nM

COc1ccc(/C=N/C2=C(C#N)C(c3ccccc3)c3c(ccc4ccccc34)O2)cc1 (configuration not stated)
GI50 (MDA-MB-468 breast): 1080 nM
TGI (MDA-MB-468 breast): 20500 nM

Cc1c(C(N)=O)sc2c1c(=O)n(Cc1ccccc1)c1nnc(SCC(=O)Nc3ccc(Cl)cc3)n21
GI50 (MDA-MB-468 breast): 2640 nM
TGI (MDA-MB-468 breast): 6880 nM
